From paper PMC7472660 (Chemical Science, 2019)

Target: prostate-specific membrane antigen (PSMA) (Homo sapiens, UniProt Q04609)
Assay: radioligand displacement of […]mTc-MIP-1427 on PSMA+ PC-3 PiP cells
Type: cell-based

prostate-specific membrane antigen (PSMA), sequence (Q04609 whole entry): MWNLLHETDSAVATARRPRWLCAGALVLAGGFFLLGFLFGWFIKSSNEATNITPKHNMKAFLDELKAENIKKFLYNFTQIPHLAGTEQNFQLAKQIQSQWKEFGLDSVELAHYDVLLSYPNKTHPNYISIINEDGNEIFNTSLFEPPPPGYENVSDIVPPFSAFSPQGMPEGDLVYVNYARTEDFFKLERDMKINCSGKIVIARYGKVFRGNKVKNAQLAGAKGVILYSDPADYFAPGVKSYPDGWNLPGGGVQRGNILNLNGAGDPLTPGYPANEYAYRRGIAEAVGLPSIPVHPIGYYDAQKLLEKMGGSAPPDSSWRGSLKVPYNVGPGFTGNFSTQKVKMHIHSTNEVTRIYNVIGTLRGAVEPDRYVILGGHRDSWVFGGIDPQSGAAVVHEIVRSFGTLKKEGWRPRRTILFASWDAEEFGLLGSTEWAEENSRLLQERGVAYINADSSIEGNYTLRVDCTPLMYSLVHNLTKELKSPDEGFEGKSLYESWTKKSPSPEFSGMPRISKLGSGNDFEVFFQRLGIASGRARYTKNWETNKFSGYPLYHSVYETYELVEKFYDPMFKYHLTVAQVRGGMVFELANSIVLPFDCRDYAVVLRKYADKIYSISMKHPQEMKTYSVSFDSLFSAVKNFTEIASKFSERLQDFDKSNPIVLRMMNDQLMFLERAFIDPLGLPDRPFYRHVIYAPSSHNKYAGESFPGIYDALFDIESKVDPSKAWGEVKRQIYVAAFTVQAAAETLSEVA

| Ki [nM] | Substance |
| --- | --- |
| 222 ± 186 | Sc(DOTA)-DUPA |
| 1.6 ± 0.4 | Sc(picaga)-DUPA |
